According to PubChem BioAssay (NCI):
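Growth conditions: 96-well plates. Treatment: test compound, 48 hours, 5 concentrations. Analysis: linear interpolation between bracketing concentrations; unreached endpoints set to highest concentration. TGI: concentration producing complete growth inhibition.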

Experiments:
Test in all cases: DTP human tumour cell line panel, 48 h
[1] = system: NCI/ADR-RES ovarian
[2] = system: RXF 393 renal
[3] = system: HT29 colon
[4] = system: SNB-75 CNS
[5] = system: MDA-MB-231 breast
[6] = system: U251 CNS
[7] = system: HL-60(TB) leukemia
[8] = system: SR leukemia
[9] = system: MDA-N
[10] = system: SW-620 colon
[11] = system: K-562 leukemia
[12] = system: HCT-15 colon
[13] = system: UACC-257 melanoma
[14] = system: CAKI-1 renal
[15] = system: A549 NSCLC
[16] = system: KM12 colon
[17] = system: OVCAR-8 ovarian
[18] = system: MCF7 breast
[19] = system: NCI-H23 lung
[20] = system: MOLT-4 leukemia
[21] = system: UO-31 renal
[22] = system: HOP-62 NSCLC
[23] = system: 786-0 renal
[24] = system: SK-MEL-5 melanoma
[25] = system: LOX IMVI melanoma
[26] = system: SF-295 CNS
[27] = system: CCRF-CEM leukemia
[28] = system: OVCAR-3 ovarian
[29] = system: M14 melanoma
[30] = system: T-47D breast
[31] = system: MDA-MB-435
[32] = system: PC-3 prostate
[33] = system: HOP-92 NSCLC
[34] = system: SN12C renal
[35] = system: IGROV1 ovarian
[36] = system: OVCAR-4 ovarian
[37] = system: ACHN renal
[38] = system: EKVX NSCLC
[39] = system: A498 renal
[40] = system: DU-145 prostate
[41] = system: MALME-3M melanoma
[42] = system: BT-549 breast
[43] = system: NCI-H460 lung
[44] = system: HS 578T breast
[45] = system: HCT-116 colon
[46] = system: NCI-H226 lung
[47] = system: RPMI-8226 leukemia
[48] = system: HCC-2998 colon
[49] = system: SF-268 CNS
[50] = system: COLO 205 colon
[51] = system: NCI-H522 lung
[52] = system: OVCAR-5 ovarian
[53] = system: SK-MEL-28 melanoma
[54] = system: SF-539 CNS

Measured: TGI

O=C1CC(CC(O)C(O)C(O)CO)CC(=O)N1 (centres undefined)
> 100 µM: all assays above
